According to PubChem BioAssay AID2060886 (Molecular Pharmacology Branch, DTP, NCI, 2025):

Tested on: 653999-131-R-J2-PDC complex spheroids, growth inhibition
Experiment: Anticancer human tumor 653999-131-R-J2-PDC patient-derived lung adenocarcinoma cell line growth inhibition [RAS]
Details: for viability, T/C: stronger effect = lower value; active means viability on the fitted dose curve at most 10% of control; inactive means the rest
Summary of the method: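 Multi-cell-type spheroids: tumor cells plus HUVEC endothelial cells and mesenchymal stem cells. RAS-pathway inhibitors were combined with targeted agents, each dosed in half-log steps down from clinical Cmax, or from 10 microM when Cmax was unknown.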
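Further: spheroids exposed to the agents for seven days before the readout.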

C[C@@H](NC(=O)c1ncnc(N)c1Cl)c1ncc(C(=O)Nc2cc(C(F)(F)F)c(Cl)cn2)s1 + C=CC(=O)N1CCN(c2nc(OCC3CCCN3C)nc3c(F)c(-c4nc(N)cc(C)c4C(F)(F)F)c(Cl)cc23)C(C)C1
> 10 µM: IC50 (curve of first compound, second compound 0.00316 µM) | IC50 (curve of first compound, second compound 0.01 µM) | IC50 (curve of first compound, second compound 0.0316 µM) | IC50 (curve of first compound, second compound 0.1 µM) | IC50 (curve of first compound, second compound 0.316 µM) | IC50 (curve of first compound, second compound 1 µM)
inactive: viability, T/C (second compound 0.00316 µM, first compound 0.0316 µM) 120% | viability, T/C (second compound 0.00316 µM, first compound 0.1 µM) 85% | viability, T/C (second compound 0.00316 µM, first compound 0.316 µM) 101% | viability, T/C (second compound 0.00316 µM, first compound 1 µM) 81% | viability, T/C (second compound 0.00316 µM, first compound 3.16 µM) 88.5% | viability, T/C (second compound 0.00316 µM, first compound 10 µM) 81% | viability, T/C (second compound 0.01 µM, first compound 0.0316 µM) 127% | viability, T/C (second compound 0.01 µM, first compound 0.1 µM) 108% | viability, T/C (second compound 0.01 µM, first compound 0.316 µM) 89% | viability, T/C (second compound 0.01 µM, first compound 1 µM) 93.5% | viability, T/C (second compound 0.01 µM, first compound 3.16 µM) 98% | viability, T/C (second compound 0.01 µM, first compound 10 µM) 71.3% | viability, T/C (second compound 0.0316 µM, first compound 0.0316 µM) 116% | viability, T/C (second compound 0.0316 µM, first compound 0.1 µM) 90.3% | viability, T/C (second compound 0.0316 µM, first compound 0.316 µM) 93.5% | viability, T/C (second compound 0.0316 µM, first compound 1 µM) 89.9% | viability, T/C (second compound 0.0316 µM, first compound 3.16 µM) 84.3% | viability, T/C (second compound 0.0316 µM, first compound 10 µM) 73.2% | viability, T/C (second compound 0.1 µM, first compound 0.0316 µM) 105% | viability, T/C (second compound 0.1 µM, first compound 0.1 µM) 95.2% | viability, T/C (second compound 0.1 µM, first compound 0.316 µM) 101% | viability, T/C (second compound 0.1 µM, first compound 1 µM) 94.3% | viability, T/C (second compound 0.1 µM, first compound 3.16 µM) 89.5% | viability, T/C (second compound 0.1 µM, first compound 10 µM) 84.2% | viability, T/C (second compound 0.316 µM, first compound 0.0316 µM) 107% | viability, T/C (second compound 0.316 µM, first compound 0.1 µM) 96.1% | viability, T/C (second compound 0.316 µM, first compound 0.316 µM) 110% | viability, T/C (second compound 0.316 µM, first compound 1 µM) 97.6% | viability, T/C (second compound 0.316 µM, first compound 3.16 µM) 85.1% | viability, T/C (second compound 0.316 µM, first compound 10 µM) 86.1% | viability, T/C (second compound 1 µM, first compound 0.0316 µM) 90.9% | viability, T/C (second compound 1 µM, first compound 0.1 µM) 96.7% | viability, T/C (second compound 1 µM, first compound 0.316 µM) 104% | viability, T/C (second compound 1 µM, first compound 1 µM) 99.5% | viability, T/C (second compound 1 µM, first compound 3.16 µM) 87.5% | viability, T/C (second compound 1 µM, first compound 10 µM) 82.2%

CC1(O)CCCC1n1c(=O)c(C(F)F)cc2cnc(NC3CCN(S(C)(=O)=O)CC3)nc21 (centres undefined)
inactive: viability, T/C (compound 0.0316 µM) 89.5% [middle of 4 runs] | viability, T/C (compound 0.1 µM) 69.3% [middle of 4 runs] | viability, T/C (compound 0.316 µM) 65.3% [middle of 4 runs] | viability, T/C (compound 1 µM) 66.8% [middle of 4 runs] | viability, T/C (compound 3.16 µM) 73.8% [middle of 4 runs] | viability, T/C (compound 10 µM) 35.3% [middle of 4 runs]
6.68 µM [middle of 4 runs]: IC50 (curve of compound)
